Earlier results, collected in paper PMC3807243 (Biochemical pharmacology, 2012).
Read-outs that look alike come from different tables or passages of the source.

Tested on: EphB4
Conditions: ref [38]–[40]

| IC50 (read-out: IC50 for inhibition of EphB4 binding) | Binding affinity for EphB4 | Sequence | IC50 (read-out: IC50 for inhibition of ephrin-B2 binding to EphB4) |
| --- | --- | --- | --- |
| – | – | TNYLFSPNGPIA | ~150 µM |
| ~0.015 µM | low nanomolar | TNYLFSPNGPIARAW [TNYL-RAW] | – |
